Test results as given in patent US8143255B2, “Heteroalkyl linked pyrimidine derivatives” (S*BIO Pte Ltd., priority 2005, dated 2012).

Key:
[1] = tested on: HL60 (acute myeloid leukemia cell line); assay: Cell-based proliferation assay, HL60; details: Homo sapiens, HL-60; HL60 cells, 96 h treatment
Method: (§1) Human cancer cell lines HL60 (acute myeloid leukemia cell line), Colo205 (colon adenocarcinoma cell line), HEL92.1.7 (erythroleukemia cell line), MV4-11 (acute myeloid leukemia cell line) and DU145 (metastatic prostate cancer cell line) were obtained from ATCC. They were cultivated in the media according to the ATCC work instructions. Colo205 and DU145 cells were seeded in 96-wells plate 5000 cells per cell and 1000 cells per well respectively. HEL92.1.7 and MV4-11 cells were seeded at 6000 cells per well while HL60 cells were seeded at 8000 cells per well in 96 well plate. The plates were incubated at 37° C., 5% CO2, for 24 h. Cells were treated with compounds at various concentrations for 96 h. Cell growth was then monitored using Celltiter96 Aqueous One Solution Cell Proliferation Assay from Promega (Madison Wis.). Dose response curves were plotted to determine GI50 values for the compounds using XL-fit (ID Business Solution, Emeryville, Calif.).

[2] = tested on: DU145 (metastatic prostate cancer cell line); assay: Cell-based proliferation assay, DU145; details: Homo sapiens, DU-145; DU145 cells, 96 h treatment
Method: as §1

FLT3 = target: T1, FLT3 (Homo sapiens, UniProt P36888); assay: In vitro kinase activity assay (PKLight), FLT3; type: biochemical; details: recombinant FLT3, poly(Glu,Tyr) substrate, 4 μM ATP
T1 construct: purchased Invitrogen PV3182
T1 sequence (P36888 27-993): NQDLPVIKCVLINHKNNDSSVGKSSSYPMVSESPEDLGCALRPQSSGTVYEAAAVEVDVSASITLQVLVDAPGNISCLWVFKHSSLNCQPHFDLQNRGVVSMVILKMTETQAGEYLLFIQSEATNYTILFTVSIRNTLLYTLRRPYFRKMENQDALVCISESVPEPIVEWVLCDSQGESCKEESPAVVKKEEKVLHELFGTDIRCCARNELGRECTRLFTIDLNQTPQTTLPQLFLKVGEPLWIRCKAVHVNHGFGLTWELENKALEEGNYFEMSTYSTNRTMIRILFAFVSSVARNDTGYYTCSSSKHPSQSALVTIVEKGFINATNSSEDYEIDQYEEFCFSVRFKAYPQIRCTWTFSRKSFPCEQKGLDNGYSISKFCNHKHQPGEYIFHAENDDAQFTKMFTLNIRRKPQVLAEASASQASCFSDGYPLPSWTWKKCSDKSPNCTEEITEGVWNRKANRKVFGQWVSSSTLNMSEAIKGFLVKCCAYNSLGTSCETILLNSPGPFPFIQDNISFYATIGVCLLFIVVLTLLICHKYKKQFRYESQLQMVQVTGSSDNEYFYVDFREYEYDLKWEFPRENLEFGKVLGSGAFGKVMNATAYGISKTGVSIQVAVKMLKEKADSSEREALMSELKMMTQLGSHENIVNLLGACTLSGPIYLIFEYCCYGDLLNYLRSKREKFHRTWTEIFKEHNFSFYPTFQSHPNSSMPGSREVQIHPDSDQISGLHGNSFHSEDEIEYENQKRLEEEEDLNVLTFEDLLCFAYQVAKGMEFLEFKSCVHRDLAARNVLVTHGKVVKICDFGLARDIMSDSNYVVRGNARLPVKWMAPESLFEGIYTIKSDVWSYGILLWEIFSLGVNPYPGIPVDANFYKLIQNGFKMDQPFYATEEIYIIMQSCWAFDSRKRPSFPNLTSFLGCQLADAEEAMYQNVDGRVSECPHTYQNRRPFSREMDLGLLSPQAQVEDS
Method: The recombinant enzymes (CDK2/CyclinA, FLT3, JAK2 and JAK2 V617F) were purchased from Invitrogen (Cat # PV3267, 3182, 4210 and 4347 respectively). All assays were carried out in 384-well white microtiter plates using the PKLight assay system from Cambrex (East rutherford, N.J.). This assay platform is essentially a luminometdc assay for the detection of ATP in the reaction using a luciferase-coupled reaction. For CDK2/Cyclin A assay, the reaction mixture consisted of the following components in 25 μL assay buffer (50 mM Hepes pH 7.5, 10 mM MgCl2, 5 mM MnCl2, 5 mM BGP, 1 mM DTT, 0.1 mM sodium orthovanadate), 1.4 μg/mL of CDK2/Cyclin A complex, 0.5 μM of RbING substrate (Invitrogen, Cat # PV2939) and 0.5 μM of ATP. The compounds were tested at 8 concentrations prepared from 4-fold serial dilution starting at 10 μM. The reaction was incubated at room temperature for 2 hr. 13 μL of PKLight ATP detection reagent was added and the reaction was incubated for 10 min. Luminescence signals were detected on a multi-label plate reader (Victor^2 V 1420, Perkin-Elmer). The other kinase assays were identical except for the following differences in reagents. For FLT3 assays, the reaction contained 2.0 μg/mL FLT3 enzyme, 5 μM of poly(Glu,Tyr) substrate (Sigma, Cat # P0275) and 4 μM of ATP. For JAK2 assays, the reaction contained 0.6 μg/mL of JAK2 enzyme, 2 μM of poly(Glu,Ala,Tyr) substrate (Sigma, Cat # P3899) and 0.2 μM of ATP. For JAK2 V617F mutant assays, the reaction contained 8.0 μg/mL of JAK2 mutant enzyme, 2 μM of poly(Glu,Ala,Tyr) substrate (Sigma, Cat # P3899) and 0.2 μM of ATP. The analytical software, Prism 4.0 (GraphPad Software Pte Ltd) was used to generate IC50 values from the data. […] IC50 values are shown below in Table 3.

[3] = tested on: HEL92.1.7 (erythroleukemia cell line); assay: Cell-based proliferation assay, HEL92.1.7; details: Homo sapiens, HEL 92.1.7; HEL92.1.7 cells, 96 h treatment
Method: as §1

JAK2 V617F = target: T2, JAK2 V617F (Homo sapiens, UniProt O60674, V617F); assay: In vitro kinase activity assay (PKLight), JAK2 V617F mutant; type: biochemical; details: recombinant JAK2 V617F mutant, poly(Glu,Ala,Tyr) substrate, 0.2 μM ATP
T2 construct: purchased Invitrogen PV4347
Method: (§2) All assays were carried out in 384-well white microtiter plates using the PKLight assay system from Cambrex (East rutherford, N.J.). This assay platform is essentially a luminometdc assay for the detection of ATP in the reaction using a luciferase-coupled reaction. For CDK2/Cyclin A assay, the reaction mixture consisted of the following components in 25 μL assay buffer (50 mM Hepes pH 7.5, 10 mM MgCl2, 5 mM MnCl2, 5 mM BGP, 1 mM DTT, 0.1 mM sodium orthovanadate), 1.4 μg/mL of CDK2/Cyclin A complex, 0.5 μM of RbING substrate (Invitrogen, Cat # PV2939) and 0.5 μM of ATP. The compounds were tested at 8 concentrations prepared from 4-fold serial dilution starting at 10 μM. The reaction was incubated at room temperature for 2 hr. 13 μL of PKLight ATP detection reagent was added and the reaction was incubated for 10 min. Luminescence signals were detected on a multi-label plate reader (Victor^2 V 1420, Perkin-Elmer). The other kinase assays were identical except for the following differences in reagents. For FLT3 assays, the reaction contained 2.0 μg/mL FLT3 enzyme, 5 μM of poly(Glu,Tyr) substrate (Sigma, Cat # P0275) and 4 μM of ATP. For JAK2 assays, the reaction contained 0.6 μg/mL of JAK2 enzyme, 2 μM of poly(Glu,Ala,Tyr) substrate (Sigma, Cat # P3899) and 0.2 μM of ATP. […] The analytical software, Prism 4.0 (GraphPad Software Pte Ltd) was used to generate IC50 values from the data.

JAK2 = target: T3, JAK2 (Homo sapiens, UniProt O60674); assay: In vitro kinase activity assay (PKLight), JAK2; type: biochemical; details: recombinant JAK2, poly(Glu,Ala,Tyr) substrate, 0.2 μM ATP
T3 construct: purchased Invitrogen PV4210
Method: as §2

[4] = tested on: Colo205 (colon adenocarcinoma cell line); assay: Cell-based proliferation assay, Colo205; details: Homo sapiens, COLO 205; Colo205 cells, 96 h treatment
Method: as §1

[5] = tested on: MV4-11 (acute myeloid leukemia cell line); assay: Cell-based proliferation assay, MV4-11; details: Homo sapiens; MV4-11 cells, 96 h treatment
Method: as §1

CDK2/CyclinA = target: T4, CDK2/CyclinA (Homo sapiens, UniProt P24941); assay: In vitro kinase activity assay (PKLight), CDK2/Cyclin A; type: biochemical; details: recombinant CDK2/Cyclin A, RbING substrate, 0.5 μM ATP, 2 hr
T4 construct: purchased Invitrogen PV3267
Method: as §2

T3 sequence (O60674 whole entry): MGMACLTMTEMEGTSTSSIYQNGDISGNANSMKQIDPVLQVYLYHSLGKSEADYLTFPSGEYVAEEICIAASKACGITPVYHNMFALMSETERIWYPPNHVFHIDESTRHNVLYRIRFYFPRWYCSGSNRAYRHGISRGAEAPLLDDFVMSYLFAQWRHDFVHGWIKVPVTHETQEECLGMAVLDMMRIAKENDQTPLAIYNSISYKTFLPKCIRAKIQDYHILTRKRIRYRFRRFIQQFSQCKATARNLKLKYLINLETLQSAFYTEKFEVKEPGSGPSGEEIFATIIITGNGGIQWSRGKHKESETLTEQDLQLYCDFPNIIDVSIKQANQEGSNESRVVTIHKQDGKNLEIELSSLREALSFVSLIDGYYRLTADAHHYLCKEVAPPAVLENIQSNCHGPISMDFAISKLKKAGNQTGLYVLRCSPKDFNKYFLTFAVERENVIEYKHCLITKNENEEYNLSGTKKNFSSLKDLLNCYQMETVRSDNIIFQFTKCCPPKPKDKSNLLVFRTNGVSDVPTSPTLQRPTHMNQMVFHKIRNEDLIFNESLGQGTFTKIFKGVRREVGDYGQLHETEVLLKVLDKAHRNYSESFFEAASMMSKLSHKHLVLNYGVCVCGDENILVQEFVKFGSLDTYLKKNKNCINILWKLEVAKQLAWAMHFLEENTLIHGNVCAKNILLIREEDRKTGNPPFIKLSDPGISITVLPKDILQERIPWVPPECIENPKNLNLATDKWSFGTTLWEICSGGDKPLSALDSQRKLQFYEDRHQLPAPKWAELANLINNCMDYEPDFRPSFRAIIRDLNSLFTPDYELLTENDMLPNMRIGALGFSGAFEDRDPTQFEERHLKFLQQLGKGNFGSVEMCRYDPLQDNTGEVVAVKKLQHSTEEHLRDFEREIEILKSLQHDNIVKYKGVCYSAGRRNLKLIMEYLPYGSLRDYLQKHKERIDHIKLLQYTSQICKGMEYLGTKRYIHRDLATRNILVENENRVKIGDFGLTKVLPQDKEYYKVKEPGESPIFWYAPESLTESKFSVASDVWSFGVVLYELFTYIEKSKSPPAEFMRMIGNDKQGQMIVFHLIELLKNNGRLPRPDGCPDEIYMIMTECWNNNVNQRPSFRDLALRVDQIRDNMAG
T2 sequence (O60674 whole entry V617F): as the sequence (O60674 whole entry) above, with V617F counted along it

In the case of CN1C/C=C/CCOc2cccc(c2)-c2ccnc(n2)Nc2cccc(c2)C1 [Compound 1], the GI50 [1] is reported as ≤ 1000 nM, the GI50 [2] is reported as ≤ 1000 nM and the IC50 (FLT3) is reported as ≤ 1000 nM. For the same molecule, the GI50 [3] was ≤ 1000 nM, the IC50 (JAK2 V617F) was ≤ 1000 nM and the IC50 (JAK2) was ≤ 1000 nM. The GI50 [4] was ≤ 1000 nM and the GI50 [5] was ≤ 1000 nM.
For O=C1NC/C=C/COCc2cccc(c2)Nc2nccc(n2)-c2cccc1c2 [Compound 17], the GI50 [1] was > 5000 nM, the GI50 [2] was > 5000 nM and the IC50 (FLT3) was 1000 to 5000 nM. For the same molecule, the GI50 [3] was > 5000 nM, the IC50 (JAK2 V617F) was ≤ 1000 nM and the IC50 (JAK2) was ≤ 1000 nM. The GI50 [4] was > 5000 nM, the GI50 [5] was > 5000 nM and the IC50 (CDK2/CyclinA) was > 5000 nM.
In the case of CCN(CC)CCOc1ccc2cc1CN(C)C/C=C/CCOc1cccc(c1)-c1ccnc(n1)N2 [Compound 32], the GI50 [1] is reported as ≤ 1000 nM, the GI50 [2] is reported as ≤ 1000 nM and the IC50 (FLT3) is reported as ≤ 1000 nM. The GI50 [3] was ≤ 1000 nM, the IC50 (JAK2 V617F) was ≤ 1000 nM and the IC50 (JAK2) was ≤ 1000 nM. The GI50 [4] was ≤ 1000 nM, the GI50 [5] was ≤ 1000 nM and the IC50 (CDK2/CyclinA) was ≤ 1000 nM.
For C1=C/CN(C2CC2)Cc2cc(ccc2OCCN2CCOCC2)Nc2nccc(n2)-c2cccc(c2)OCC/1 [Compound 36], the GI50 [1] was ≤ 1000 nM, the GI50 [2] was > 5000 nM and the IC50 (FLT3) was ≤ 1000 nM. For the same molecule, the GI50 [3] was 1000 to 5000 nM, the IC50 (JAK2 V617F) was ≤ 1000 nM and the IC50 (JAK2) was ≤ 1000 nM. The GI50 [4] was 1000 to 5000 nM, the GI50 [5] was ≤ 1000 nM and the IC50 (CDK2/CyclinA) was ≤ 1000 nM.
CN1C/C=C/CCOc2cccc(c2)-c2ccnc(n2)Nc2ccc(OCCN3CCCC3)c(c2)C1 [Compound 40] was tested, and the GI50 [1] was ≤ 1000 nM, the GI50 [2] was ≤ 1000 nM and the IC50 (FLT3) was ≤ 1000 nM. For the same molecule, the GI50 [3] was ≤ 1000 nM, the IC50 (JAK2 V617F) was ≤ 1000 nM and the IC50 (JAK2) was ≤ 1000 nM. For the same molecule, the GI50 [4] was ≤ 1000 nM, the GI50 [5] was ≤ 1000 nM and the IC50 (CDK2/CyclinA) was ≤ 1000 nM.
In the case of CN1C/C=C/CCOc2cc(F)cc(c2)-c2ccnc(n2)Nc2ccc(OCCN3CCCC3)c(c2)C1 [Compound 52], the GI50 [1] is reported as ≤ 1000 nM, the GI50 [2] is reported as ≤ 1000 nM and the IC50 (FLT3) is reported as ≤ 1000 nM. The GI50 [3] was ≤ 1000 nM, the IC50 (JAK2 V617F) was ≤ 1000 nM and the IC50 (JAK2) was ≤ 1000 nM. The GI50 [4] was ≤ 1000 nM, the GI50 [5] was ≤ 1000 nM and the IC50 (CDK2/CyclinA) was ≤ 1000 nM.
